US20210244791A1, “APPLICATION OF PEDF-DERIVED SHORT PEPTIDES IN TENDON HEALING” (BRIM Biotechnology, Inc., priority 2018, published 2021)

Tests used:
[1] = tested on: cultured tendon stem/progenitor cells (TSPC); conditions: peptide added in culture medium; previous study; cited from earlier work
tendon rupture = conditions: rat model; previous study; cited from earlier work
cyclin D1 = test: Western blot analysis of cyclin D1 expression in TSPC; type: cell-based, rabbit; conditions: TSPC treated 24 h; compared with solvent-treated cells; normalized to β-actin
Protocol: Primary rabbit TSPC were treated with 10NM 29-mer or its variants for 24 h. Representative blots (A) and densitometric analysis with the SD (B) from three independent experiments are shown. Cyclin D1 expression was normalized to ([…]. *P<0.01 vs. solvent-treated cells. ^#P<0.05 vs. 29-mer-treated cells.
(§1) Achilles tendons from New Zealand White rabbits (6-8 months old, 3.0-4.0 kg) were used in this study. Achilles tendons were washed two times with sterile phosphate-buffered saline (PBS) containing 50 μg/ml gentamicin. The tendon and tendon sheath were cut into small pieces (1-2 mm^3). Each 100 mg of fragment was then digested in a solution containing 3 mg/ml of type I collagenase and 4 mg/ml of dispase in 1 ml balance salt solution (BSS; Alcone) at 37° C. for 4 hours. The digested tissues were washed three times with PBS and collected by centrifugation (800 g for 10 min). The digested tissues were placed in tissue-culture plates (Falcon Labware; NJ, USA) and resuspended in high-glucose DMEM supplemented with 10% FBS and 50 μg/ml gentamycin, and maintained at 37° C. with 5% CO2. After 5 days, the medium was changed to remove the loosened tissue residues. Subsequently, tendon cells were incubated with 10% FBS medium for 2 days, and then cultured with a basal medium (2% FBS, 1% ITSE, 300 μg/ml L-glutamine, 1% antibiotic-antimicotic solutions) for further 10 days. Culture medium was changed every 3 days. For passage, tendon cells were harvested with 0.25% trypsin/EDTA, cell counting by haemocytometer, approximately 5×10^3 cells were seeded in each well of a 96-well cell culture plate or 2×10^5 cells were seeded in each well of a 6-well cell culture plate for 24 h. These expanded tendon cells were then treated with 10 μM 29-mer or its variants in fresh basal medium for further 24 h and subjected to cell proliferation assay and western blot analysis, respectively.
Cell lysis, SDS-PAGE, and antibodies used for immunoblotting were performed as described (Ho et al., 15-deoxy-Delta(12,14)-prostaglandin J2 induces vascular endothelial cell apoptosis through the sequential activation of MAPKS and p53. J Biol. Chem., 2008; 283(44): 30273-30288). The band intensity in immunoblot was evaluated with a Model GS-700 imaging densitometer (Bio-Rad Laboratories, Hercules, Calif.) and analyzed using Labworks 4.0 software.
However, the 29-mer effect on cyclin D1 protein induction was almost abolished by alanine/glycine replacement at residue S93, A96, Q98, 1103, 1104 and R106, respectively (1.3±0.1, 1.5±0.3, 1.3±0.1, 0.9±0.1, 1.3±0.2, and 1.0±0.3). […] The data also imply that the PDSP at positions Ser93, Ala96, Gln98, Ile103, Ile104, and Arg106 are important for sustaining the PDSP effect on induction of TSPC proliferation.

injured Achilles tendon = test: Rat model of Achilles tendon injury, histology (H&E) and histopathological score; type: in vivo; conditions: 1 week postoperative; subcutaneous 150 μl alginate gel with 100 μM peptide
Text: Representative micrographs of the histopathological analysis by H&E staining. H&E-stained sections in higher magnification show uninjured tendon tissue with a relative scarcity of cells among the collagen fibers.
(A) Representative H&E-stained longitudinal sections in higher magnification show the nuclei morphologies in uninjured tendon tissue and injured tendon treated with vehicle/alginate and 29-mer/alginate for 1 week. (B) Histopathological scores. Total scores were determining by fiber structure, fiber arrangement, rounding of the nuclei, resident cell density and inflammation (infiltration of inflammatory cells, neovascularization and fatty deposits). Data are reported as mean±SE. *P<0.0005 versus vehicle/alginate-treated tendon; ^#P<0.05 versus 29-mer/alginate-treated tendon.
To investigate the effects of the 29-mer peptide on tendon healing, a rat model of Achilles tendon injury was established as reported by Orhan et al. (The effect of extracorporeal shock waves on a rat model of injury to tendon Achilles. A histological and biomechanical study. J. Bone Joint Surg. Br. 2004;.86(4):.613-618). Adult 10-week-old male Sprague-Dawley rats (initial body weight=312±11 g) were anesthetized by an intraperitoneal injection of xylazine (10 mg/kg). Then, the left tendo Achilles injury was created by full-thickness insertion of an 18-G needle through tendo Achilles 1 cm proximal to the calcaneum attachment site. This created a horizontal wound that was flanked by intact tendon tissue to prevent the retraction of severed ends. The skin incision was closed after the wound was irrigated with sterile saline. Treatments were applied to area around the tendon lesion by subcutaneous injection with 150 μl of alginate gel mixed with 100 μM 29-mer or DMSO vehicle (six rats per experimental condition).
The tendon and surrounding soft tissue were dissected. Specimens were fixed in a 4% paraformaldehyde (PFA) solution and then were embedded in paraffin blocks. Sections (5 μm in thickness) were longitudinally cut and stained with hematoxylin and eosin (H&E) or used for immunohistochemical examination. 36 sections per tendon were carefully prepared so as to include the most severely degenerated area. Images were captured using a Nikon Eclipse 80i microscope (Nikon Corporation, Tokyo, Japan) equipped with a Leica DC 500 camera (Leica Microsystems, Wetzlar, Germany). Four sections of each sample containing injured tendon tissues were selected and evaluated by two blinded observers to assess the tendon morphology according to a modified semi-quantitative grading score from 0 to 3 proposed by Chen et al. (Tendon derived stem cells promote platelet-rich plasma healing in collagenase-induced rat Achilles tendinopathy. Cell Physiol. Biochem., 2014; 34(6): 2153-68). The scores analyzed the fiber structure (0-3), fiber arrangement (0-3), rounding of the nuclei (0-3), resident cell density (0-3), and inflammation (0-3; infiltration of inflammatory cells, neovascularization and fatty deposits). According to this grading system, a perfectly normal tendon obtained a score of 0, whereas a score of 15 was assigned to maximally abnormal tendons.
To investigate the therapeutic effect of the 29-mer peptide on injured tendon, a rat model of Achilles tendon injury was established by full-thickness insertion of an 18-G needle through the tendon Achilles. We delivered the 29-mer in a 150 μl alginate gel, which releases 90% loaded 29-mer in 5 days as described in a previous protocol (Ho et al., PEDF-derived peptide promotes skeletal muscle regeneration through its mitogenic effect on muscle progenitor cells. Am J Physiol. Cell Physiol. 2015 Aug. 1; 309(3): C159-68).

Primary rabbit TSPC = test: TSPC cell proliferation assay (fluorometric kit); type: cell-based; conditions: 10 μM peptide, low serum media, PDSP solvent (DMSO) set as 100%, mean±SE of three experiments
Protocol: Primary rabbit TSPC were cultured to near-confluence in a 75T cell culture flask and then verified by immunostaining of a TSPC marker, nucleostemin (>98%; green color). Nuclei were stained with Hoechst 33258 (blue color) and visualized by an epifluorescence microscopy. The nucleostemine-positive TSPC were treated with 10 μM 29-mer or its variants for 24 h. The numbers of TSPC after 24-h expansion were detected with a cell proliferation assay kit (BioVision; catalog number: K307). The TSPC treated with PDSP solvent was set as 100%. Results are expressed as mean±SE of three independent experiments.
as §1
Cell Proliferation Assay Kit (Fluorometric) was purchased from BioVision (Catalog #: K307) and used to evaluate cell proliferation according to the manufacturer's recommendations. The fluorescence was read at 480 nm for excitation and 538 nm for emission on a SPECTRAmax GEMINI XS fluorescence microplate spectrophotometer (Molecular Devices, Sunnyvale, Calif., USA).
Rabbit TSPC isolation was described above. TSPC in low serum media were treated with 10 μM of one of the 29-mer variants for 24 h. Cell proliferation was examined by a cell proliferation kit based on a kit provided nuclear dye that specifically binds to nucleic acid in the cell and generates green fluorescence.

Row | Substance | induction of cultured TSPC proliferation [1] | healing of tendon rupture (tendon rupture) | induction of the cyclin D1 protein (cyclin D1) [fold] | histological appearance of treated tendon (H&E staining) (injured Achilles tendon) | TSPC proliferation (numbers of TSPC after 24-h expansion) (Primary rabbit TSPC) [%]
1 | 20-mer: PEDF-derived short peptide, Ser93-Leu112 (SLGAEQRTESIIHRALYYDL; UniProt P36955 93-112, looked up, fragment) | able to induce cultured tendon stem/progenitor cells (TSPC) proliferation | facilitated healing of tendon rupture |  |  | 
2 | 24-mer: PEDF-derived short peptide, Ser93-Pro (SLGAEQRTESIIHRALYYDLISSP; UniProt P36955 93-116, looked up, fragment) | able to induce cultured tendon stem/progenitor cells (TSPC) proliferation | facilitated healing of tendon rupture |  |  | 
3 | 1103A: 29-mer variant with single alanine replacement at isoleucine-103 (SLGAEQRTESAIHRALYYDLISSPDIHGT; UniProt P36955 93-121, looked up, variant I103A) |  |  | 0.9±0.1 | loss of fiber organization and accompanied a marked increase in inflammatory matrix, fatty deposits, and vascularity | 106±5.3
4 | 1104A: 29-mer variant with single alanine replacement at isoleucine-104 (SLGAEQRTESIAHRALYYDLISSPDIHGT; UniProt P36955 93-121, looked up, variant I104A) |  |  | 1.3±0.2 | loss of fiber organization and accompanied a marked increase in inflammatory matrix, fatty deposits, and vascularity | 112±1.7
5 | A96G: 29-mer variant with single glycine alteration at alanine-96 (SLGGEQRTESIIHRALYYDLISSPDIHGT; UniProt P36955 93-121, looked up, variant A96G) |  |  | 1.5±0.3 | loss of fiber organization and accompanied a marked increase in inflammatory matrix, fatty deposits, and vascularity | 102±4.0
6 | A107G: 29-mer variant with single glycine alteration at residue 107 (SLGAEQRTESIIHRGLYYDLISSPDIHGT; UniProt P36955 93-121, looked up, variant A107G) |  |  |  |  | 117±3.8
7 | P116A: 29-mer variant with single alanine alteration at residue 116 (SLGAEQRTESIIHRALYYDLISSADIHGT; UniProt P36955 93-121, looked up, variant P116A) |  |  |  |  | 115±3.7
8 | Q98A: 29-mer variant with single alanine replacement at glutamine-98 (SLGAEARTESIIHRALYYDLISSPDIHGT; UniProt P36955 93-121, looked up, variant Q98A) |  |  | 1.3±0.1 | loss of fiber organization and accompanied a marked increase in inflammatory matrix, fatty deposits, and vascularity | 106±5.4
9 | R99A: 29-mer variant with single alanine alteration at residue 99 (SLGAEQATESIIHRALYYDLISSPDIHGT; UniProt P36955 93-121, looked up, variant R99A) |  |  |  |  | 116±7.0
10 | R106A: 29-mer variant with single alanine replacement at arginine-106 (SLGAEQRTESIIHAALYYDLISSPDIHGT; UniProt P36955 93-121, looked up, variant R106A) |  |  | 1.0±0.3 | loss of fiber organization and accompanied a marked increase in inflammatory matrix, fatty deposits, and vascularity | 106±3.5
